Data reported in US11365215B2, “Method for preventing, improving, or treating inflammatory bowel disease” (Research & Business Foundation Sungkyunkwan University, priority 2015, dated 2022).
Peptide text beside a SMILES is read from it.

Assays:
Type in all cases: cell-based
interleukin-6 = experiment: Suppression of LPS-induced IL-6 expression in RAW 264.7 macrophage cells (RT-PCR, Real-Time PCR); conditions: pretreated 100 nM for 30 min, LPS two hours, compared to untreated sample
Procedure: First, RAW 264.7 macrophage cells were purchased from American Type Culture Collection (ATCC; Manassas, Va.), and were culture at a temperature of 37° C., under 5% CO2 atmosphere, using 10% Fetal Bovine Serum (FBS) and Dulbecco's Modified Eagle's Medium (DMEM) containing 1% penicillin/streptomycin.
The cultured RAW 264.7 macrophage cells were divided into a 6-well cell culture plate. After 24 hours, the cells were pretreated with compound 1.1 (SEQ ID NO: 2), compound 1.2, and smaducin-6, respectively, in a concentration of 100 nM for 30 min, and further treated with lipopolysaccharides (LPS) for two hours. These cells were collected using TRIzol® and the RNA was extracted. From 2 μg of the extracted RNA, cDNAs (complementary deoxyribonucleic acids) were synthesized and reverse transcription polymerase chain reactions (RT-PCR) and real-time polymerase chain reactions (Real-Time PCR) were performed. Samples from the RT-PCR were confirmed by electrophoresis on agarose gels and quantified using densitometer. A glyceraldehyde 3-phosphate dehydrogenase (GAPDH) gene was used as a loading control for the interleukin-6 gene.
RAW 264.7 macrophage cells were treated with varying concentrations of compound 1.1 (SEQ ID NO: 2) from 50 pM to 500 nM for 30 minutes, and treated with 100 ng/mL of LPS for two hours.

NF-κB = experiment: 5×NF-κB-Luc reporter luciferase assay in LPS-treated RAW 264.7 cells
Procedure: Specifically, 5×NF-κB-Luc reporter plasmid was transfected into RAW 264.7 cells using Effectene (Qiagen, USA). The transfected cells were pretreated with 100 nM of compound 1.1 (SEQ ID NO: 2) for 30 minutes, and further treated with LPS (100 ng/ml) for two hours, and luciferase activity in the cells was measured (FIG. 4 depicts a graph showing relative inhibition activities of compound 1.1 (SEQ ID NO: 2) and compound 1.2 to NF-κB activation). When the cells were treated with compound 1.1 (SEQ ID NO: 2) and compound 1.2 according to the present invention, activation of NF-κB, which was induced by LPS, was inhibited (FIG. 4).
In addition, 5×NF-κB-Luc reporter plasmid was transfected into RAW 264.7 macrophage cells and treated with compounds of the present invention, as described above. After 24 hours of the transfection, the cells were pretreated with DMSO (control), compound 1.1 (SEQ ID NO: 2), reference compound 1 (SEQ ID NO: 16) (compound where palmitic acid is removed from compound 1.1 (SEQ ID NO: 2)), and smaducin-6 were treated at various concentrations of 100 pM, 1 nM, and 100 nM for 30 minutes, and then the cells were treated with 100 ng/ml of LPS for two hours.
Specifically, 5×NF-κB-Luc reporter plasmid, SBE-Luc reporter plasmid, and BRE-Luc reporter plasmid were individually transfected into Raw 264.7 macrophage cells. After 24 hours, the cells transfected with the NF-κB-Luc reporter plasmid were treated with 100 ng/mL of LPS, the cells transfected with the SBE-Luc reporter plasmid were treated with 5 ng/mL of TFG-β1, and the cells transfected with the BRE-Luc reporter plasmid were treated with 100 ng/mL of BMP6 for two hours.
As described in Example 2.3, 5×NF-κB-Luc reporter plasmid was transfected into RAW 246.7 macrophage cells. After 24 hours, the cells transfected with NF-κB-Luc reporter plasmid were pretreated with compound 1.1 (SEQ ID NO: 2) (100 nM), interleukin-1-receptor-associated-kinase-1/4 inhibitor (IRAK1/4) inhibitor (25 μM, CAS 509093-47-4), and smaducin-6 (100 nM) for 30 minutes, and then further treated with LPS (100 ng/ml) for 2 hours. Subsequently, luciferase activities in the cells were measured.

[1] = tested on: inflammatory signaling pathway protein complex mediated by MyD88 or RIP1; experiment: Immunoprecipitation of inflammatory signaling pathway protein complex in LPS-treated RAW264.7 cells; conditions: pretreated, then LPS
Text: Specifically, using antibodies corresponding to proteins which relate to the formation of Toll-like receptors (TLRs) signaling pathway protein complex (for example, IRAK1, TRAF6, MyD88, RIP1 and Pellino-1), disruption of the formation of inflammatory signaling pathway protein complexes was affirmed by immunoprecipitation. As reference control, a relative amount of expression of β-actin from the total cell lysate was compared and presented using Western blot.
RAW264.7 macrophage cells were individually retreated with compound 1.1 (SEQ ID NO: 2) and compound 1.2, and smaducin-6, and further treated with LPS. These RAW264.7 macrophage cells were collected, lysed in a lysis butter (PBS containing 0.5% Triton X-100, 20 mM HEPES (pH 7.4), 150 mM NaCl, 12.5 mM β-glycerol phosphate, 1.5 mM MgCl2, 10 mM NaF, 2 mM DTT, 1 mM Na3O4V, 2 mM EGTA, and 1 mM Protease Inhibitor (PMSF)), and centrifuged at 13000 rpm for 10 minutes. For immunoprecipitation assays, the supernatant was incubated at 4° C. for 12 hours, with protein-A agarose beads and the antibodies corresponding to the above proteins, and the beads were subsequently washed three times with the lysis buffer. The immunoprecipitated substances were dissociated from the beads with addition of 2× sample buffer, and were boiled. The prepared samples were loaded on SDS-polyacrylamide gel (FIG. 7).

[2] = tested on: MAPK signaling pathway proteins (ERK1/2, JNK, p38); experiment: Western blot of MAPK signaling pathway protein phosphorylation in LPS-treated RAW 246.7 cells; conditions: for phosphorylation of the MAPK signaling pathway proteins (ERK1/2, JNK, p38): 100 nM for 30 minutes, LPS 0, 0.5, 1 and 2 hours
Procedure: RAW 246.7 macrophage cells were pretreated with compound 1.1 (SEQ ID NO: 2), compound 1.2 and reference compound 1 (SEQ ID NO: 16) at a concentration of 100 nM for 30 minutes and then further treated with LPS for 0 hour, 0.5 hour, 1 hour and 2 hours. […] Changes of the concentration upon phosphorylation of each protein were measured by immunoblotting using anti-phosphorylation antibodies.
Specifically, RAW 246.7 macrophage cells were pretreated with DMSO, compound 1.1 (SEQ ID NO: 2) (100 nM), IRAK1/4 inhibitor (25 μM), and smaducin-6 (100 nM) for 30 minutes, and then further treated with LPS (100 ng/ml) for two hours.

[3] = target: T1, inflammatory signaling pathway complex mediated by MyD88 and RIP1 (Mus musculus, UniProt P22366+Q60855); experiment: Immunoprecipitation/immunoblot of inflammatory signaling pathway complex in LPS-treated BMDM cells; conditions: 100 pM, 1 nM, 100 nM, then 100 ng/mL LPS
T1 construct: endogenous in cells; host or cells: bone-marrow-derived macrophage (BMDM) cells
Procedure: Bone-marrow-derived macrophage (BMDM) cells were individually pretreated with compound 1.1 (SEQ ID NO: 2), reference compound 1 (SEQ ID NO: 16), and smaducin-6 at various concentrations of 100 pM, 1 nM, and 100 nM, and then further treated with 100 ng/mL of LPS.

AP-1 = experiment: AP-1-Luc reporter luciferase assay in LPS-treated RAW 246.7 cells; conditions: 25 μM for 30 minutes, LPS 100 ng/ml 2 hours
Procedure: RAW 246.7 macrophage cells were transfected with AP-1-Luc reporter plasmid as described in Example 2.3. After 24 hours, the transfected cells with AP-1-Luc reporter plasmid were pretreated with compound 1.1 (SEQ ID NO: 2) (100 nM), IRAK1/4 inhibitor (25 μM), and smaducin-6 (100 nM) for 30 minutes, and then further treated with LPS (100 ng/ml) for 2 hours.

T1 sequence (P22366 whole entry): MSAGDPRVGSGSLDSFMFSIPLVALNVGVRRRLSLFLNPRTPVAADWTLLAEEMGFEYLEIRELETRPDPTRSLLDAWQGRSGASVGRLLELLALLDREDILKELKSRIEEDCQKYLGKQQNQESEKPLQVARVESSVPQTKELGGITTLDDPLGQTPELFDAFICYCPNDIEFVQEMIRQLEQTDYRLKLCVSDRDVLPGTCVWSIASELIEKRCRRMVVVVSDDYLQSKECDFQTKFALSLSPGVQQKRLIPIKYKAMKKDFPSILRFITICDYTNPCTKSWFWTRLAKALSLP
T1 sequence (Q60855 whole entry): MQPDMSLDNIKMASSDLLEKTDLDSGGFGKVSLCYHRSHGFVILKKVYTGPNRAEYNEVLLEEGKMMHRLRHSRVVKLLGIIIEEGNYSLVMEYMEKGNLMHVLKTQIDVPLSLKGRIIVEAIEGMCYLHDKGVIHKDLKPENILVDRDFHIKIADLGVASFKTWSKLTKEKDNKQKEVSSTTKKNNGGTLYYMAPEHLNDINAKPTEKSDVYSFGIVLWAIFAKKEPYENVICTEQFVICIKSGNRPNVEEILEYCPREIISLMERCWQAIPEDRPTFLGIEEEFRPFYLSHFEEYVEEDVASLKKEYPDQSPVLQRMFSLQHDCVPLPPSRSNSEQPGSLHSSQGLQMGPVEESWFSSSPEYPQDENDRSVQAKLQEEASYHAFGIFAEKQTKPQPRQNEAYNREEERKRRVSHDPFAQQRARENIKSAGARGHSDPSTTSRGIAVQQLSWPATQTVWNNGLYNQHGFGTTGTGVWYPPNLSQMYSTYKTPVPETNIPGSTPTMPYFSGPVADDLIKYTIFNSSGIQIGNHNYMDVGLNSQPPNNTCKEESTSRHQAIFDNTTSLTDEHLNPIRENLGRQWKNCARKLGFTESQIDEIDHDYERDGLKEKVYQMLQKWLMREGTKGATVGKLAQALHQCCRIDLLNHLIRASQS

## CCCCCCCCCCCCCCCC(=O)N1CCC[C@H]1C(=O)NCC(=O)N[C@@H](Cc1ccc(O)cc1)C(=O)O [compound 1.2, (S)-3-(4-hydroxyphenyl)-2-(2-((S)-1-palmitoylpyrrolidine-2-carboxamido)acetamido)propanoic acid] (HELM PEPTIDE1{[CCCCCCCCCCCCCCCC(=O)[*:2]].P.G.Y}$$$$V2.0)
interleukin-6
  expression of interleukin-6 induced by LPS treatment: suppressed
NF-κB; 100 nM for 30 minutes, LPS 100 ng/ml two hours
  activation of NF-κB induced by LPS (luciferase activity): inhibited
[1]
  formation of inflammatory signaling pathway protein complex mediated by MyD88 or RIP1: disrupted
[2]
  phosphorylation of the MAPK signaling pathway proteins (ERK1/2, JNK, p38): did not inhibit phosphorylation

## reference compound 1: compound where palmitic acid is removed from compound 1.1 (SEQ ID NO: 2) (PPGY) [reference compound]
NF-κB; 100 pM, 1 nM, 100 nM for 30 minutes, LPS 100 ng/ml two hours
  inhibition of the activity of NF-κB induced by LPS, dose dependence: not inhibited in dose dependent manner
[3]
  formation of inflammatory signaling pathway complex mediated by MyD88 and RIP1: formed the inflammatory signaling pathway complex
[2]
  phosphorylation of the MAPK signaling pathway proteins (ERK1/2, JNK, p38): did not inhibit phosphorylation

## O=C(Nc1nc2ccccc2n1CCN1CCOCC1)c1cccc([N+](=O)[O-])c1 [IRAK1/4 inhibitor, reference compound]
NF-κB; 25 μM for 30 minutes, LPS 100 ng/ml 2 hours
  NF-κB activation (luciferase activity): inhibited
[2]; 25 μM for 30 minutes, LPS 100 ng/ml two hours
  MAPK signaling pathway / phosphorylation of ERK, JNK, p38: suppressed at least one or more of MAPK signaling pathways
AP-1
  AP-1-Luc luciferase activity (MAPK signaling pathway): inhibited MAPK signaling pathway
